Data published in patent US20220401514A1, “ANTIMICROBIAL, BACTERIOPHAGE-DERIVED POLYPEPTIDES AND THEIR USE AGAINST GRAM-NEGATIVE AND ACID-FAST BACTERIA” (CONTRAFECT CORPORATION, priority 2019, published 2022).
≈ marks a conversion by molar mass, not a printed value. Where two headings read alike, the source gives them in different places.

How the values were obtained:
[1] = test system: carbapenem-resistant P. aeruginosa clinical isolate CFS-1292; assay: MIC by modified CLSI broth microdilution against P. aeruginosa CFS-1292 (CAA, CAA + human serum); type: cell-based, Pseudomonas aeruginosa; settings: for MIC (μg/mL) against CFS-1292 in 100% CAA (1st run/2nd run): 1st run or single value
[2] = test system: Klebsiella pneumoniae; type: cell-based; settings: for MIC50 / MIC100 / MIC Range: K. pneumoniae isolates (n per peptide in table); for MIC: Klebsiella pneumoniae HM-44, CAA supplemented with human serum
Experimental: (§1) Determination of Minimal Inhibitory Concentrations (MIC).
Additional MIC testing was performed for several peptides against the ESKAPE pathogens Escherichia coli, Enterobacter cloacae, Klebsiella pneumoniae, and Acinetobacter baumannii, in CAA supplemented with human serum (Table D).

[3] = test system: Acinetobacter baumannii; assay: microbe, parasite or virus in culture; type: cell-based; settings: for MIC50 / MIC100 / MIC Range: A. baumannii isolates (n per peptide in table)
[4] = test system: S. maltophilia; assay: MIC against S. maltophilia isolates; type: cell-based, Stenotrophomonas maltophilia; settings: for MIC50 / MIC100 / MIC Range: S. maltophilia isolates (n per peptide in table)
Outline: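 Chp peptides were tested on a set of S. maltophilia isolates (n = isolates per species), with minimal inhibitory concentrations given in μg/mL.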

[5] = test system: carbapenem-resistant bacterial strains; assay: organism not typed; type: cell-based
Excerpt: as §1

[6] = Stability assessment in 100% CAA; type: in vitro ADME; set-up: unit not given beside the values
Experimental: Stability was assessed after incubation in 100% human serum at 37° C. after 10 minutes, 1 hour, and 2 hours.
Stability assessment was further conducted in 100% CAA and rabbit serum using the same methodology discussed above.

[7] = test system: M. scrofulaceum; assay: 45 hr MIC against M. scrofulaceum (NTM); type: cell-based, Mycobacterium scrofulaceum; settings: M. scrofulaceum Prissick and Masson ATCC 19981
[8] = test system: M. intracellulare; assay: 45 hr MIC against M. intracellulare (NTM); type: cell-based, Mycobacterium intracellulare; settings: M. intracellulare (Cuttino and McCabe) Runyon ATCC 13950
[9] = test system: P. aeruginosa strain CFS-1292; assay: MIC in presence and absence of NaCl (140 mM); type: cell-based, Pseudomonas aeruginosa; settings: for Fold change in MIC: CAA + 140 mM NaCl versus CAA without added NaCl; for MIC, CAA + 140 mM NaCl / MIC, CAA (no added NaCl): P. aeruginosa CFS-1292
Experimental: Certain Chp peptides were evaluated over a range of physiological NaCl levels and pH values, and were further evaluated for activity in the presence of various divalent cations.

[10] = test system: P. aeruginosa strain CFS-1292; assay: MIC at pH 6, pH 7 and pH 8; type: cell-based, Pseudomonas aeruginosa
Experimental: The Chp peptides were further evaluated at varying pH levels. The MIC values were determined at pH 6, pH 7, and pH 8 for 18 different Chp peptides against P. aeruginosa strain CFS-1292. […]

[11] = test system: P. aeruginosa strain CFS-1292; assay: MIC in presence and absence of Survanta pulmonary surfactant; type: cell-based, Pseudomonas aeruginosa
[12] = test system: M. kansasii Hauduroy ATCC 12478; assay: 45 hr MIC against M. kansasii (NTM), Mueller Hinton broth; type: cell-based, Mycobacterium kansasii
[13] = test system: P. aeruginosa strain CFS-1292; assay: Checkerboard assay (FICI) with antibiotics, P. aeruginosa; type: cell-based, Pseudomonas aeruginosa; settings: P. aeruginosa CFS-1292
Outline: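 Antibiotic diluted 2-fold along one plate axis against Chp peptide; bacteria added at 1×10^5 […] in CAA, optionally with human serum or pulmonary surfactant.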

[14] = Acinetobacter baumannii (clinical isolate HSS), RSC 30, CAA without human serum
[15] = Acinetobacter baumannii (clinical isolate HSS), RSC 32, CAA without human serum
[16] = Acinetobacter baumannii ATCC BAA 747, CAA supplemented with human serum
[17] = carbapenem-resistant isolate PA19
[18] = carbapenem-resistant isolate PA20
[19] = carbapenem-resistant isolate PA21
[20] = carbapenem-resistant isolate PA22
[21] = carbapenem-resistant isolate PA23
[22] = carbapenem-resistant isolate PA24
[23] = carbapenem-resistant isolate WLC-452
[24] = CAA media + 0.19 mg/mL Survanta

## MVRRRRLRRRISRRIFRRTVARVGRRRRSFRGGIRF [Chp1]
[1]
  MIC (μg/mL) against CFS-1292 in 100% CAA (1st run/2nd run): 1 µg/mL
[1]; CAA + […] human serum
  MIC (μg/mL) against CFS-1292 in CAA + […] human serum: 1 µg/mL
[2]
  MIC50: 2 µg/mL
  MIC100: 2 µg/mL
  MIC Range: 1 to 4 µg/mL
  MIC: 1 µg/mL
[3]
  MIC50: 2 µg/mL
  MIC100: 4 µg/mL
  MIC Range: 1 to 4 µg/mL
[3]; [14]
  MIC: 8 µg/mL
[3]; [15]
  MIC: 8 µg/mL
[3]; [16]
  MIC: 2 µg/mL
[4]
  MIC50: 2 µg/mL
  MIC100: 4 µg/mL
  MIC Range: 1 to 8 µg/mL
[5]; [17]
  MIC: 2 µg/mL
[5]; [18]
  MIC: 4 µg/mL
[5]; [19]
  MIC: 4 µg/mL
[5]; [20]
  MIC: 4 µg/mL
[5]; [21]
  MIC: 4 µg/mL
[5]; [22]
  MIC: 4 µg/mL
[5]; [23]
  MIC: 2 µg/mL
[6]
  MIC (100% CAA): 0.5
[7]
  45 hr MIC: 4 µg/mL
[8]
  45 hr MIC: 4 µg/mL
[9]
  Fold change in MIC: 1
  MIC, CAA + 140 mM NaCl: 1 µg/mL
  MIC, CAA (no added NaCl): 1 µg/mL
[10]; CAA media (pH 7)
  MIC: 1 µg/mL
[10]; pH 6
  MIC: 0.5 µg/mL
[10]; pH 7
  MIC: 1 µg/mL
[10]; pH 8
  MIC: 1 µg/mL
[11]; [24]
  MIC: 2 µg/mL
[11]; CAA media + […] Survanta
  MIC: 2 µg/mL
[11]; CAA media alone
  MIC: 1 µg/mL
[12]
  45 hr MIC: 4 µg/mL

## NC[C@H]1O[C@H](O[C@H]2[C@H](O)[C@@H](O[C@H]3O[C@H](CO)[C@@H](O)[C@H](N)[C@H]3O)[C@H](N)C[C@@H]2N)[C@H](N)C[C@@H]1O [tobramycin, reference compound]
[3]; Acinetobacter baumannii, ATCCBAA747, A. baumanni (ATCC BAA-747), control agents of Table 8, read-out: MIC (in brackets beside MBEC)
  MIC: < 0.5 µg/mL
[13]; combined with Chp2-M1
  Antibiotic FIC: 0.25
[13]; combined with Chp2
  Antibiotic FIC: 0.25
[13]; combined with Chp4-M1
  Antibiotic FIC: 0.25
[13]; combined with Chp6-M1
  Antibiotic FIC: 0.25
[13]; combined with Chp10-M1
  Antibiotic FIC: 0.25
[13]; combined with Unp2-M1
  Antibiotic FIC: 0.25
[7]; Mycobacterium scrofulaceum, ATCC19981, 45 h, read-out: 45 hr MIC
  MIC: 0.25 µg/mL (≈ 0.535 µM)
[8]; Mycobacterium intracellulare, ATCC13950, 45 h, read-out: 45 hr MIC
  MIC: 0.25 µg/mL (≈ 0.535 µM)
[12]; Mycobacterium kansasii, ATCC12478, 45 h, read-out: 45 hr MIC
  MIC: 16 µg/mL (≈ 34.2 µM)

## MARRRYRLPRRRSRRLFSRTALRMHPRNRLRRIMRGGIRF [Chp6]
[1]
  MIC (μg/mL) against CFS-1292 in 100% CAA (1st run/2nd run): 0.5 µg/mL
[2]
  MIC50: 0.5 µg/mL
  MIC100: 1 µg/mL
  MIC Range: 0.125 to 1 µg/mL
  MIC: 0.125 µg/mL
[3]
  MIC50: 0.25 µg/mL
  MIC100: 0.5 µg/mL
  MIC Range: 0.125 to 1 µg/mL
[3]; [14]
  MIC: 2 µg/mL
[3]; [15]
  MIC: 2 µg/mL
[3]; [16]
  MIC: 1 µg/mL
[4]
  MIC50: 0.5 µg/mL
  MIC100: 1 µg/mL
  MIC Range: 0.25 to 1 µg/mL
[4]; Table 45 isolates
  activity against S. maltophilia: active
[5]; [17]
  MIC: 0.5 µg/mL
[5]; [18]
  MIC: 1 µg/mL
[5]; [19]
  MIC: 1 µg/mL
[5]; [20]
  MIC: 1 µg/mL
[5]; [21]
  MIC: 1 µg/mL
[5]; [22]
  MIC: 1 µg/mL
[5]; [23]
  MIC: 0.25 µg/mL
[6]
  MIC (100% CAA): 0.25
[7]
  45 hr MIC: 2 µg/mL
[8]
  45 hr MIC: 0.5 µg/mL
[9]
  Fold change in MIC: 1
  MIC, CAA + 140 mM NaCl: 0.5 µg/mL
  MIC, CAA (no added NaCl): 0.5 µg/mL
[10]; CAA media (pH 7)
  MIC: 1 µg/mL
[10]; pH 6
  MIC: 2 µg/mL
[10]; pH 7
  MIC: 0.25 µg/mL
[10]; pH 8
  MIC: 1 µg/mL
[11]; [24]
  MIC: 0.5 µg/mL
[11]; CAA media + […] Survanta
  MIC: 0.5 µg/mL
[11]; CAA media alone
  MIC: 0.5 µg/mL
[12]
  45 hr MIC: 1 µg/mL
